{"source": "patent US9493487B2", "about": "“3-(1H-imidazo[4,5-C]pyridin-2-YL)-1H-pyrazolo[3,4-B]pyridine and therapeutic uses thereof” (Samumed, LLC, priority 2014, dated 2016)", "key": {"[1]": {"system": "Wnt activity (Sp5-Luc reporter, SW480 colon carcinoma cells)", "experiment": "Sp5-Luc Wnt reporter gene assay in SW480 colon carcinoma cells", "format": "cell-based", "conditions": "Homo sapiens; SW480 cells stably expressing Sp5-Luc reporter; 42 h incubation; BrightGlo luminescence normalized to DMSO", "how_it_was_run": "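IC50 values come from variable-slope four-parameter fits of luciferase signal normalized to DMSO wells. Stable Sp5-Luc reporter SW480 colon carcinoma cells were exposed to compounds in a 3-fold dilution series (source plates from 10 mM stock) for forty-two hours at 37 °C.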"}, "[2]": {"system": "primary human fibroblasts derived from IPF patients (LL29 cells)", "experiment": "Inhibition of TGF-β1-induced fibrosis (αSMA staining) in primary human fibroblasts from IPF patients", "format": "cell-based", "conditions": "Fibroblast, 96 h, TGF-β1 20 ng/mL, 4 days, 11-point dose-response 10 μM to 1.87 nM", "excerpt": "The above synthesized compounds were screened using primary human fibroblasts (derived from IPF patients) treated with TGF-β1 to determine their ability to inhibit the fibrotic process.\nPrimary human fibroblasts derived from IPF patients (LL29 cells) [^1Xiaoqiu Liu, et. al., “Fibrotic Lung Fibroblasts Show Blunted Inhibition by cAMP Due to Deficient cAMP Response Element-Binding Protein Phosphorylation”, Journal of Pharmacology and Experimental Therapeutics (2005), 315(2), 678-687; ^2Watts, K. L., et. al., “RhoA signaling modulates cyclin D1 expression in human lung fibroblasts; implications for idiopathic pulmonary fibrosis”, Respiratory Research (2006), 7(1), 88] were obtained from American Type Culture Collection (ATCC) and expanded in F12 medium supplemented with 15% Fetal Bovine Serum and Penicillin/Streptomycin.\nEach compound was dissolved in DMSO as a 10 mM stock and used to prepare compound source plates. Serial dilution (1:2, 11-point dose-response curves from 10 μM to 1.87 nM) and compound transfer was performed using the ECHO 550 (Labcyte, Sunnyvale, Calif.) into 384-well clear bottom assay plates (Greiner Bio-One) with appropriate DMSO backfill for a final DMSO concentration of 0.1%. LL29 cells were plated at 1,500 cells/well in 80 μl/well F12 medium supplemented with 1% Fetal Bovine Serum. One hour after addition of the cells, TGF-β1 (Peprotech; 20 ng/mL) was added to the plates to induce fibrosis (ref. 1 and 2 above). Wells treated with TGF-β1 and containing DMSO were used as controls. Cells were incubated at 37° C. and 5% CO2 for 4 days. Following incubation for 4 days, SYTOX green nucleic acid stain (Life Technologies [Thermo Fisher Scientific]) was added to the wells at a final concentration of 1 uM and incubated at room temperature for 30 min. Cells were then fixed using 4% formaldehyde (Electron Microscopy Sciences), washed 3 times with PBS followed by blocking and permeabilization using 3% Bovine Serum Albumin (BSA; Sigma) and 0.3% Triton X-100 (Sigma) in PBS. Cells were then stained with antibody specific to α-smooth muscle actin (αSMA; Abcam) (ref 1 and 2 above) in 3% Bovine Serum Albumin (BSA; Sigma) and 0.3% Triton X-100 (Sigma) in PBS, and incubated overnight at 4° C. Cells were then washed 3 times with PBS, followed by incubation with Alexa Flor-647 conjugated secondary antibody (Life Technologies [Thermo Fisher Scientific]) and DAPI at room temperature for 1 hour. Cells were then washed 3 times with PBS and plates were sealed for imaging. αSMA staining was imaged by excitation at 630 nm and emission at 665 nm and quantified using the Compartmental Analysis program on the CellInsight CX5 (Thermo Scientific). Dead or apoptotic cells were excluded from analysis based on positive SYTOX green staining. % of total cells positive for αSMA were counted in each well and normalized to the average of 11 wells treated with TGF-β1 on the same plate using Dotmatics' Studies Software. The normalized averages (fold change over untreated) of 3 replicate wells for each compound concentration were used to create dose-responses curves and EC50 values were calculated using non-linear regression curve fit in the Dotmatics' Studies Software. The EC50 values are reported."}}, "data": [{"compound": "Cc1ccc(-c2nccc3[nH]c(-c4n[nH]c5ncc(-c6cncc(NC(=O)C(C)C)c6)cc45)nc23)s1", "note": "[Compound 347, N-(5-(3-(4-(5-Methylthiophen-2-yl)-1H-imidazo[4,5-c]pyridin-2-yl)-1H-pyrazolo[3,4-b]pyridin-5-yl)pyridin-3-yl)isobutyramide]", "values": [{"measurement": "IC50", "setting": "[1]", "result": 20.8, "unit": "nM"}, {"measurement": "EC50", "setting": "[2]", "result": 633, "unit": "nM"}]}, {"compound": "Cc1ccc(-c2nccc3[nH]c(-c4n[nH]c5ncc(-c6cncc(CN7CCCCC7)c6)cc45)nc23)s1", "note": "[Compound 353, 3-(4-(5-Methylthiophen-2-yl)-1H-imidazo[4,5-c]pyridin-2-yl)-5-(5-(piperidin-1-ylmethyl)pyridin-3-yl)-1H-pyrazolo[3,4-b]pyridine]", "values": [{"measurement": "IC50", "setting": "[1]", "result": 576, "unit": "nM"}, {"measurement": "EC50", "setting": "[2]", "result": 9, "unit": "nM"}]}, {"compound": "Cc1ccc(-c2nccc3[nH]c(-c4n[nH]c5ncc(-c6cncc(NC(=O)C7CCCC7)c6)cc45)nc23)s1", "note": "[Compound 359, N-(5-(3-(4-(5-Methylthiophen-2-yl)-1H-imidazo[4,5-c]pyridin-2-yl)-1H-pyrazolo[3,4-b]pyridin-5-yl)pyridin-3-yl)cyclopentanecarboxamide]", "values": [{"measurement": "IC50", "setting": "[1]", "result": 29.9, "unit": "nM"}, {"measurement": "EC50", "setting": "[2]", "result": 4850, "unit": "nM"}]}, {"compound": "CC(=O)c1ccc(-c2nccc3[nH]c(-c4n[nH]c5ncc(-c6cncc(NC(=O)Cc7ccccc7)c6)cc45)nc23)s1", "note": "[Compound 374, N-(5-(3-(4-(5-Acetylthiophen-2-yl)-1H-imidazo[4,5-c]pyridin-2-yl)-1H-pyrazolo[3,4-b]pyridin-5-yl)pyridin-3-yl)-2-phenylacetamide]", "values": [{"measurement": "IC50", "setting": "[1]", "result": "> 10000", "unit": "nM"}, {"measurement": "EC50", "setting": "[2]", "result": 427, "unit": "nM"}]}, {"compound": "CC(=O)c1ccc(-c2nccc3[nH]c(-c4n[nH]c5ncc(-c6cncc(NC(=O)C7CCCCC7)c6)cc45)nc23)s1", "note": "[Compound 386, N-(5-(3-(4-(5-Acetylthiophen-2-yl)-1H-imidazo[4,5-c]pyridin-2-yl)-1H-pyrazolo[3,4-b]pyridin-5-yl)pyridin-3-yl)cyclohexanecarboxamide]", "values": [{"measurement": "IC50", "setting": "[1]", "result": 188, "unit": "nM"}, {"measurement": "EC50", "setting": "[2]", "result": 53, "unit": "nM"}]}, {"compound": "CS(=O)(=O)NCc1cc(F)cc(-c2nccc3[nH]c(-c4n[nH]c5ncc(-c6cncc(NC(=O)c7ccccc7)c6)cc45)nc23)c1", "note": "[Compound 401, N-(5-(3-(4-(3-Fluoro-5-(methylsulfonamidomethyl)phenyl)-1H-imidazo[4,5-c]pyridin-2-yl)-1H-pyrazolo[3,4-b]pyridin-5-yl)pyridin-3-yl)benzamide]", "values": [{"measurement": "IC50", "setting": "[1]", "result": "> 10000", "unit": "nM"}, {"measurement": "EC50", "setting": "[2]", "result": "≥ 9990", "unit": "nM"}]}, {"compound": "CS(=O)(=O)NCc1cc(F)cc(-c2nccc3[nH]c(-c4n[nH]c5ncc(-c6cncnc6)cc45)nc23)c1", "note": "[Compound 416, N-(3-Fluoro-5-(2-(5-(pyrimidin-5-yl)-1H-pyrazolo[3,4-b]pyridin-3-yl)-1H-imidazo[4,5-c]pyridin-4-yl)benzyl)methanesulfonamide]", "values": [{"measurement": "IC50", "setting": "[1]", "result": "> 10000", "unit": "nM"}, {"measurement": "EC50", "setting": "[2]", "result": "≥ 9990", "unit": "nM"}]}, {"compound": "CCCCC(=O)Nc1cncc(-c2cnc3[nH]nc(-c4nc5c(-c6cc(F)cc(NCCN(C)C)c6)nccc5[nH]4)c3c2)c1", "note": "[Compound 434, N-(5-(3-(4-(3-((2-(Dimethylamino)ethyl)amino)-5-fluorophenyl)-1H-imidazo[4,5-c]pyridin-2-yl)-1H-pyrazolo[3,4-b]pyridin-5-yl)pyridin-3-yl)pentanamide]", "values": [{"measurement": "IC50", "setting": "[1]", "result": 21.9, "unit": "nM"}, {"measurement": "EC50", "setting": "[2]", "result": 13, "unit": "nM"}]}, {"compound": "CN(C)CCNc1cc(F)cc(-c2nccc3[nH]c(-c4n[nH]c5ncc(-c6cncc(CNCC7CCCC7)c6)cc45)nc23)c1", "note": "[Compound 440, N^1-(3-(2-(5-(5-(((Cyclopentylmethyl)amino)methyl)pyridin-3-yl)-1H-pyrazolo[3,4-b]pyridin-3-yl)-1H-imidazo[4,5-c]pyridin-4-yl)-5-fluorophenyl)-N^2,N^2-dimethylethane-1,2-diamine]", "values": [{"measurement": "IC50", "setting": "[1]", "result": 752, "unit": "nM"}, {"measurement": "EC50", "setting": "[2]", "result": 858, "unit": "nM"}]}, {"compound": "Fc1cccc(-c2nccc3[nH]c(-c4n[nH]c5ncc(C6CCNCC6)cc45)nc23)c1", "note": "[Compound 885, 3-(4-(3-Fluorophenyl)-1H-imidazo[4,5-c]pyridin-2-yl)-5-(piperidin-4-yl)-1H-pyrazolo[3,4-b]pyridine]", "values": [{"measurement": "IC50", "setting": "[1]", "result": 3860, "unit": "nM"}, {"measurement": "EC50", "setting": "[2]", "result": 9, "unit": "nM"}]}, {"compound": "Fc1cccc(-c2nccc3[nH]c(-c4n[nH]c5ncc(-c6cn[nH]c6)cc45)nc23)c1", "note": "[Compound 887, 3-(4-(3-Fluorophenyl)-1H-imidazo[4,5-c]pyridin-2-yl)-5-(1H-pyrazol-4-yl)-1H-pyrazolo[3,4-b]pyridine]", "values": [{"measurement": "IC50", "setting": "[1]", "result": 6, "unit": "nM"}, {"measurement": "EC50", "setting": "[2]", "result": 10, "unit": "nM"}]}, {"compound": "NC1CN(c2cncc(-c3cnc4[nH]nc(-c5nc6c(-c7cccc(F)c7)nccc6[nH]5)c4c3)n2)C1", "note": "[Compound 890, 1-(6-(3-(4-(3-Fluorophenyl)-1H-imidazo[4,5-c]pyridin-2-yl)-1H-pyrazolo[3,4-b]pyridin-5-yl)pyrazin-2-yl)azetidin-3-amine]", "values": [{"measurement": "IC50", "setting": "[1]", "result": 365, "unit": "nM"}, {"measurement": "EC50", "setting": "[2]", "result": 205, "unit": "nM"}]}, {"compound": "Fc1cccc(-c2nccc3[nH]c(-c4n[nH]c5ncc(-c6cncc(OC7CCNCC7)c6)cc45)nc23)c1", "note": "[Compound 892, 3-(4-(3-Fluorophenyl)-1H-imidazo[4,5-c]pyridin-2-yl)-5-(5-(piperidin-4-yloxy)pyridin-3-yl)-1H-pyrazolo[3,4-b]pyridine]", "values": [{"measurement": "IC50", "setting": "[1]", "result": 315, "unit": "nM"}, {"measurement": "EC50", "setting": "[2]", "result": 9, "unit": "nM"}]}, {"compound": "O=C(CC1CCNCC1)Nc1cncc(-c2cnc3[nH]nc(-c4nc5c(-c6cccc(F)c6)nccc5[nH]4)c3c2)c1", "note": "[Compound 893, N-(5-(3-(4-(3-Fluorophenyl)-1H-imidazo[4,5-c]pyridin-2-yl)-1H-pyrazolo[3,4-b]pyridin-5-yl)pyridin-3-yl)-2-(piperidin-4-yl)acetamide]", "values": [{"measurement": "IC50", "setting": "[1]", "result": 868, "unit": "nM"}, {"measurement": "EC50", "setting": "[2]", "result": 308, "unit": "nM"}]}, {"compound": "CN(C)CCOc1cncc(-c2cnc3[nH]nc(-c4nc5c(-c6cccc(F)c6)nccc5[nH]4)c3c2)c1", "note": "[Compound 895, 2-((5-(3-(4-(3-Fluorophenyl)-1H-imidazo[4,5-c]pyridin-2-yl)-1H-pyrazolo[3,4-b]pyridin-5-yl)pyridin-3-yl)oxy)-N,N-dimethylethan-1-amine]", "values": [{"measurement": "IC50", "setting": "[1]", "result": 343, "unit": "nM"}, {"measurement": "EC50", "setting": "[2]", "result": "≥ 9990", "unit": "nM"}]}, {"compound": "COc1cncc(-c2cnc3[nH]nc(-c4nc5c(-c6cccc(F)c6)nccc5[nH]4)c3c2)c1", "note": "[Compound 896, 3-(4-(3-Fluorophenyl)-1H-imidazo[4,5-c]pyridin-2-yl)-5-(5-methoxypyridin-3-yl)-1H-pyrazolo[3,4-b]pyridine]", "values": [{"measurement": "IC50", "setting": "[1]", "result": 37, "unit": "nM"}, {"measurement": "EC50", "setting": "[2]", "result": 108, "unit": "nM"}]}, {"compound": "Fc1cccc(-c2nccc3[nH]c(-c4n[nH]c5ncc(-c6ccncc6)cc45)nc23)c1", "note": "[Compound 900, 3-(4-(3-Fluorophenyl)-1H-imidazo[4,5-c]pyridin-2-yl)-5-(pyridin-4-yl)-1H-pyrazolo[3,4-b]pyridine]", "values": [{"measurement": "IC50", "setting": "[1]", "result": "> 10000", "unit": "nM"}, {"measurement": "EC50", "setting": "[2]", "result": 9, "unit": "nM"}]}, {"compound": "Fc1cccc(-c2nccc3[nH]c(-c4n[nH]c5ncc(-c6cnccn6)cc45)nc23)c1", "note": "[Compound 902, 3-(4-(3-Fluorophenyl)-1H-imidazo[4,5-c]pyridin-2-yl)-5-(pyrazin-2-yl)-1H-pyrazolo[3,4-b]pyridine]", "values": [{"measurement": "IC50", "setting": "[1]", "result": 705, "unit": "nM"}, {"measurement": "EC50", "setting": "[2]", "result": 9, "unit": "nM"}]}, {"compound": "CN(C)CC(=O)Nc1cncc(-c2cnc3[nH]nc(-c4nc5c(-c6cccc(F)c6)nccc5[nH]4)c3c2)c1", "note": "[Compound 1367, 2-(Dimethylamino)-N-(5-(3-(4-(3-fluorophenyl)-1H-imidazo[4,5-c]pyridin-2-yl)-1H-pyrazolo[3,4-b]pyridin-5-yl)pyridin-3-yl)acetamide]", "values": [{"measurement": "IC50", "setting": "[1]", "result": 183, "unit": "nM"}, {"measurement": "EC50", "setting": "[2]", "result": 186, "unit": "nM"}]}]}
